Earlier results on 3 compounds are cited in US20250205506A1, “Treatment of viral infection” (priority 2023, published 2025).

Series [1] deals with recurrent herpes labialis. The following applies: for Reduction of healing time: tablets, otherwise healthy people.
The test system of a further series is herpes infections. As to conditions: orally administered; red light from a HeNe laser.
In another series the test system is herpes zoster. The following applies: intravenously administered; golden light (565 nm yellow + 630 nm red) or red light to the affected area.

On to `CC(C)[C@H](N)C(=O)OCCOCn1cnc2c(=O)[nH]c(N)nc21` [valacyclovir], for which the “Reduction of healing time” value in series [1] is reported as “reduce healing time by about one day”. The “Preventative treatment of herpes” value in series [1] (taken once daily) is “effective preventative treatment for herpes reducing frequency and severity of outbreaks”.
Turning to `CC(=O)OCC(CCn1cnc2cnc(N)nc21)COC(C)=O` [famciclovir], in series [1], the “Reduction of healing time” value is “reduce healing time by about one day”.
For the compound `Nc1nc2c(ncn2COCCO)c(=O)[nH]1` [acyclovir, 9-(2-hydroxyethoxymethyl) guanine], the “Reduction of healing time” value in series [1] was “reduce healing time by about one day”. In the series on herpes infections, the “Combined effect with red light compared to acyclovir alone” value was “improvements over acyclovir alone”. Also, the “Combined effect with light compared to acyclovir alone” value with herpes zoster is recorded as “improvement over acyclovir alone”.
